Laboratory results: PubChem BioAssay AID504313 (Emory University Molecular Libraries Screening Center, 2011)
Active and inactive are the calls of the source. The rule behind the calls is not given here.

These compounds were tested against X-box-binding protein 1 (Homo sapiens) (UniProt P17861) (assay: inhibitors of XBP1 reporter signal, dose response, counter-screen, cell-based (AID 504313;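 note: CHO cells carrying an XBP1 reporter stimulated with tunicamycin; potency is for inhibition of the tunicamycin-induced reporter signal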)). Conditions: XBP1 reporter cell assay, percent of control.

SMILES	IC50
CC(C)C[C@H](NC(=O)c1[nH]cnc1C(=O)N[C@@H](C)C(=O)OC(C)(C)C)C(=O)OC(C)(C)C	2.71 µM
O=C(NCc1ccccc1Cl)c1ccc(S(=O)(=O)Nc2cccc(C(F)(F)F)c2)cc1	> 10 µM (inactive)
O=C1C=CC(=O)N1N(c1ccccc1)c1ccccc1	> 10 µM (inactive)
CCCCc1ccc(Nc2nc(CCC)cc(=O)[nH]2)cc1	2.24 µM
Cc1nc(SCC(=O)Nc2cc(C)on2)c2c3c(sc2n1)CCCC3	> 10 µM (inactive)
O=C1c2ccccc2-c2onc3ccc(Oc4ccccc4)c1c23	inactive
COc1ccc(-c2cnc(OC(C)(C)C)nc2OC(C)(C)C)cc1OC	inactive
CC(C)(C)C(=O)NC(=S)NNC(=O)C(c1ccccc1)c1ccccc1	> 10 µM (inactive)
COc1ccc(C(=O)NNC(=O)c2ccccn2)cc1	inactive
C/C(N)=C(/C#N)C(=O)COC(=O)C1CCC(C(C)(C)C)CC1 (stereo not drawn)	> 10 µM (inactive)
O=C(CCl)Nc1cn(-c2ccccc2)nc1-c1ccccc1	inactive
CCCCCCCCNC(C)C(O)c1ccc(SC(C)C)cc1 (stereo not drawn)	4.76 µM
O=C(Cc1ccccc1)Nc1cccc(N2C(=O)C=CC2=O)c1	inactive
Cn1c2ccccc2c(=O)c2c(=O)n(C3CCCCCC3)c(C3CCCCC3)nc21	> 10 µM (inactive)
CCc1ccc(OCC(=O)NC(NC(=S)Nc2ccc(Cl)cc2)C(Cl)(Cl)Cl)cc1 (stereo not drawn)	inactive
O=C(/C=C/c1ccccc1)Nc1cccc(C(=O)O)c1	inactive
CCCCCCn1c(CN2CCCC(C)C2)nc2c1c(=O)n(C)c(=O)n2C (stereo not drawn)	> 10 µM (inactive)
CC(=O)OCC1O[C@@H](O[C@@H]2C[C@H]3C(C)(C)[C@H](OC(C)=O)CC[C@]3(C)[C@H]3CC[C@]45C[C@]4(CC[C@H]5[C@@H](C)C[C@@H](O)[C@H](O)C(C)(C)O)[C@@]32C)[C@H](O)[C@@H](O)[C@@H]1O (stereo partly drawn)	inactive
CCc1ccc(OCc2n[nH]c(=S)n2C(C)CCCC(C)C)cc1 (stereo not drawn)	inactive
O=C1CC(Sc2nnnn2-c2ccccc2)C(=O)N1c1cccc(Cl)c1 (stereo not drawn)	> 10 µM (inactive)
COc1ccc(/C=C/C(=O)NC(=S)NNC(=O)c2cccnc2)cc1	> 10 µM (inactive)
O=C(c1ccc(COc2ccc(Cl)cc2)o1)N1N=C(C(F)F)CC1(O)C(F)F (stereo not drawn)	inactive
O=C1C(Cl)=C(N2CCCCC2)C(=O)C(Cl)=C1c1cnc(N2CCCCC2)s1	inactive
S=c1[nH]nc(C2CCCCC2)n1/N=C/C=C/c1ccccc1	> 10 µM (inactive)
CCCCC(CC)Cn1c2nc3ccccc3nc2c2c(=N)oc(C)nc21 (stereo not drawn)	> 10 µM (inactive)
CCc1ccc(-c2nc(CN3CCC(C(=O)NCCN(CC)c4ccccc4)CC3)c(C)o2)cc1	> 10 µM (inactive)
C/C(=N\NC(=O)COc1ccc(C(C)(C)C)cc1)c1ccc(N2CCOCC2)cc1	inactive
CN(CCCC[C@H](CNCc1ccc(-c2ccccc2)cc1)N1C[C@H](c2ccccc2)N(CCc2ccc(Cl)c(Cl)c2)C(=O)C1=O)Cc1ccc(-c2ccccc2)cc1	inactive
COc1ccc(C2CC(c3c(-c4ccccc4)c4cc(Cl)ccc4[nH]c3=O)=NN2S(C)(=O)=O)cc1OC (stereo not drawn)	inactive

Continued, values first:

IC50	SMILES
> 10 µM (inactive)	Clc1ccc2[nH]c(-c3ccccc3)cc2c1
inactive	COc1cc(/C=N/O)cc(Br)c1OCc1cccc(Cl)c1
> 10 µM (inactive)	COc1cc(OC)cc(-c2nc3ccccc3c(=O)n2OC(=O)c2ccc(Br)cc2)c1
3.51 µM	Cc1ccc2nc(NC(=O)CSCC(=O)OCC(=O)c3ccc(Br)cc3)sc2c1
inactive	Cc1ccc2c(C)nc(Nc3nc(CSc4nc5ccccc5[nH]4)cc(=O)[nH]3)nc2c1
> 10 µM (inactive)	O=C(On1c(-c2ccccc2)nc2ccccc2c1=O)c1ccco1
> 10 µM (inactive)	C=C(C)COc1ccc(-c2n[nH]c(C)c2-c2ccccc2OC)c(O)c1
inactive	N#CC1=C(N)N2C(=C(C#N)C1c1ccc(Br)cc1)Nc1ccccc12 (stereo not drawn)
> 10 µM (inactive)	CCc1c(C)sc(NC(=O)CSc2nc3c(c(C(F)(F)F)n2)CCc2ccccc2-3)c1C#N
inactive	CCOc1ccc(N(CC(=O)Nc2cccc(Cl)c2)S(=O)(=O)c2c(C)noc2C)cc1
inactive	CN1C(=O)/C(=C/c2cc(N=Nc3ccccc3)ccc2O)SC1=S
> 10 µM (inactive)	CC(C)(C)c1ccc(C(=O)NNC(=O)c2cccc(Br)c2)cc1
inactive	CC1=NN(c2nc(-c3ccc(C)cc3)cs2)C(=O)C1N=Nc1ccccc1O (stereo not drawn)
> 10 µM (inactive)	COC(=O)c1c(NC(=O)Nc2ccc(Cl)cc2)sc(C)c1C
4.03 µM	Cc1cccc(NS(=O)(=O)c2ccc(C3CCCCC3)cc2)c1
> 10 µM (inactive)	Cc1cc(Br)c2c(c1)/C(=C/C(=O)c1cccs1)C(=O)N2
> 10 µM (inactive)	Cc1ccc(-c2ccc(/C=C3\C(=O)ON=C3c3ccccc3)o2)c([N+](=O)[O-])c1
> 10 µM (inactive)	COc1ccc(/C=C2/C(=O)ON=C2c2ccccc2)cc1OC
inactive	CCCC(=O)OCCNc1cc(Sc2nc3ccccc3[nH]2)c2nonc2c1[N+](=O)[O-]
